# Results taken from patent publication US20060004086A1, “Method of reducing Abeta42 and treating diseases” (Mayo Foundation for Medical Education and Research, priority 2000, published 2006).
# Read-outs that look alike come from different tables or passages of the source.
# Columns and labels:
# [1] = system: Notch intramembrane cleavage; assay: Notch intramembrane cleavage and NICD formation in HEK293 cells; format: cell-based; settings: for inhibition of Notch cleavage: data not shown
# Text: Two Notch-encoding vector constructs were used in examining Notch processing. These were a construct expressing a myc-tagged NH2-terminal truncated Notch-1 polypeptide (NotchΔEMV), and a construct expressing only the Notch intracellular cytoplasmic domain (NICD) (see Kopan et al. (1996) Proc Natl Acad Sci USA 93:1683-8). In the construct expressing a myc-tagged NH2-terminal truncated Notch-1 polypeptide, the start codon, a methionine at position 1726, was mutated to a valine to eliminate translation initiation.
# Notch intramembrane cleavage and formation of NICD were analyzed in kidney HEK293 cells. The myc-tagged NotchΔEMV construct encoding a constitutively cleaved Notch variant was transiently transfected into HEK293 cells. […] Then they were pulse labeled with ^35S-methionine for thirty minutes and chased for two hours. Cell lysates were prepared and subjected to immunoprecipitation with monoclonal antibody 9E10. Immunoprecipitated proteins were subjected to SDS-PAGE and phosphor imaging analyses.
# Aβ42 secretion [2] = assay: Aβ40/Aβ42 ELISA of culture supernatants, CHO cells expressing APP751 and PS-1 mutant M146L; format: cell-based, Chinese hamster
# Description: (§1) Cell cultures were maintained in standard cell culture media supplemented with 10% fetal bovine serum and 100 U/mL penicillin/streptomycin (Life Technologies Inc., Germany).
# (§2) For analyses of Aβ secretion, APP processing, and notch cleavage, cells were cultured in serum-containing media and pretreated overnight with a specific NSAID. The next day, media were changed and cultures were treated with the same NSAID for another 24 hours.
# (§3) Aβ was detected by sandwich enzyme-linked immunosorbent assay (ELISA) as described by Murphy et al. (2000) J Biol Chem 275:26277-84. Following NSAID treatment, culture supernatants were collected, and cell debris was removed by centrifugation. Complete protease inhibitor cocktail (Roche Molecular Biochemicals, IN, USA) was added to the media and Aβ40 and Aβ42 levels were quantified using end-specific Aβ ELISAs. All measurements were performed in duplicate.
# (§4) Levels of Aβ40 and Aβ42 in culture supernatants were analyzed using ELISA. […] Aβ42/Aβ40 ratios and total Aβ levels (i.e., the sum of Aβ40 and Aβ42 values) were normalized to values obtained from DMSO-treated cells. Results shown were averages of two or three experiments performed in duplicate.
# Aβ40 and Aβ42 levels in culture supernatants were analyzed using ELISA as described in Example 3. […] Aβ42/Aβ40 ratios and total Aβ levels were normalized to values obtained from ethanol-treated cells. Results shown were averages of two or three experiments, each performed in duplicate.
# APP processing = assay: Western blot of APP, APP CTFs and sAPP, CHO cells expressing APP751; format: cell-based, Chinese hamster; settings: for accumulation of APP-CTFs: data not shown
# Text: Expression of holo-APP and APP C-terminal fragments (CTFs) was examined by Western blot analysis using antibody CT-15. APP secretion was examined by Western blotting using a mixture of 5A3/IG7 antibodies. APP turnover was examined by pulse labeling of CHO cells with 150 μCi [^35S]-methionine for fifteen minutes followed by a cold chase step for up to four hours. Cell lysates were immunoprecipitated with antibody CT-15, subjected to SDS-PAGE, and analyzed by phosphor imaging.
# Cell lysates were prepared, and steady-state APP levels were examined using 4-12% gradient-gel electrophoresis and western blotting using the polyclonal antibody CT15.
# Aβ species [3] = assay: Immunoprecipitation/mass spectrometry of secreted Aβ species, CHO cells expressing APP751; format: cell-based, Chinese hamster
# Description: Secretion of Aβ peptides was analyzed using immunoprecipitation/mass spectrometry as described by Wang et al. (1996) J Biol Chem 271:31894-902. Briefly, 1 mL amount of culture supernatant was subjected to immunoprecipitation using the monoclonal antibody 4G8 (Senetek, CA, USA). Molecular masses and concentrations of Aβ peptides were measured using a matrix assisted laser desorption/ionization time-of-flight (MALDI-TOF) mass spectrometer. To compare the concentrations of individual Aβ species in culture supernatants, synthetic Aβ12-28 peptides (Sigma, MO, USA) were added to the supernatant samples as internal standards and relative peak heights were calculated.
# To examine Aβ species secreted by cells treated with sulindac sulfide, immunoprecipitation and mass spectrometry analyses were performed. […] Various Aβ species including Aβ1-42, Aβ1-39, Aβ1-38, and Aβ1-37 were quantified. […] Duplicate measurements were used in generating the bar graph. […] Increases in Aβ1-38 levels were dose-dependent.
# CHO or HS683 cells = assay: NSAID cell toxicity, MTT-assay or [3H]-thymidine incorporation assay; settings: concentrations up to 100 μM; data not shown
# Text: NSAID toxicity in CHO or HS683 cells was examined using standard MTT-assay (3-(4,5-Dimethyl-2-thiazolylyl)-2,5-diphenyl-2H-tetrazolium Bromide) or [^3H]-thymidine incorporation assay.
# Aβ species [4] = assay: Bicine/Urea Aβ western blot, CHO cells expressing APP751 and mutant PS-1; format: cell-based, Chinese hamster; settings: 60 μM or 80 μM, compared with DMSO
# Description: Bicine/Urea Aβ western blot analysis was performed as described by Wiltfang et al. (1997) Electrophoresis 18:527-32. A 1 mL amount of culture supernatant was subjected to immunoprecipitation using monoclonal antibody 26D6. Immunoprecipitates were mixed with sample buffer and heated to 95° C. for five minutes. Eluant samples were separated on Bicine/Urea gels, then transferred to nitrocellulose membranes, and probed with antibody 26D6. Standard Aβ1-40, Aβ1-42 and Aβ1-38 peptides (Sigma, MO, USA) were used for identification of the Aβ species.
# AP polypeptides were immunoprecipitated from culture supernatants of CHO cells expressing APP751 and mutant PS-1. Immunoprecipitates were separated on an SDS-urea gel system that can resolve individual Aβ species (see Wiltfang et al. (1997) Electrophoresis 18:527-32). Standard Aβ1-38, Aβ1-40, and Aβ1-42 peptides were included for identification of different Aβ species.
# Aβ42 secretion [5] = assay: Aβ ELISA, primary fibroblasts from COX-1/COX-2 double-knockout mice expressing APP695; format: cell-based; settings: primary mouse embryonic fibroblasts; data not shown
# Text: as §1, §3
# Aβ42 secretion [6] = assay: Aβ secretion in kidney HEK293 cells; format: cell-based; settings: data not shown
# Description: as §1, §2, §3, §4
# [7] = plasma concentration of the drug; cited from earlier work
# Aβ42 secretion [8] = assay: Primary in vitro screen, CHO-APP695NL,I,his cells, end-specific Aβ40 and Aβ42 ELISAs; format: cell-based, Chinese hamster; settings: Cricetulus griseus, 6 h
# Description: Aβ40 and Aβ42 levels in culture supernatants were determined for each time points using ELISA.
# In a primary screen, the effects of NSAIDs on Aβ42 secretion by a CHO cell line that expressed APP(CHO-APP695NL,I,his) were examined. Duplicate cell cultures were treated with (a) a vehicle, (b) 10 μM of NSAID, or (c) 100 μM of NSAID.
# To determine Aβ40 and Aβ42 levels, six-hour culture supernatants taken from cells grown in a single well of a twenty-four-well plate were used in end-specific Aβ40 and Aβ42 ELISAs (Suzuki, et al. (1994) Sci 264:[…]). Aβ40 and Aβ42 levels of cultures treated with NSAID were compared with those of cultures treated with the vehicle alone. […] NSAIDs that caused either selective reduction of Aβ42 levels or reduction in both Aβ40 and Aβ42 levels are subjected to a secondary screen.
# [9] = system: brain Aβ42 levels in Tg2576 mice; assay: Acute oral dosing of three-month-old Tg2576 mice, brain Aβ ELISA; format: in vivo, mouse; settings: Tg2576 mice
# Description: NSAIDs were dissolved in an appropriate vehicle. Dimethyl sulfoxide (DMSO), ethanol, and ethyl acetate are some examples. The NSAID solution was mixed with Kool-Aid and administered orally using a medicine dropper. […] At two hours after the final doses were administered, animals were sacrificed, and SDS soluble Aβ40 and Aβ42 were analyzed using ELISA.
# Three month old mice have high levels of soluble Aβ in the brain but no Aβ deposition (see Hsiao et al. (1996) Science 274:99-102). […] Brain levels of SDS-soluble Aβ40 and Aβ42 were measured using ELISA.
# Compounds were administered orally.
# Aβ levels in the brain = settings: long-term transgenic mouse studies; cited from earlier work
# COX-1/COX-2 = settings: cited from earlier work
# Aβ42 secretion [10] = assay: Non-selective and selective COX-inhibitors tested for effect on Aβ42 levels in cell cultures (Table 1 summary); format: cell-based; settings: for Aβ42/Aβ40 ratio: effect up to the highest conc. tested listed per drug in Table 1
# Description: All measurements were performed in duplicate.
# (§5) Aβ40 and Aβ42 levels in cell culture supernatants were analyzed using ELISA. Aβ42/Aβ40 ratios and total Aβ levels were normalized to values obtained from DMSO-treated cultures. […] NSAIDs were verified using NMR and mass spectrometry.
# Aβ42 secretion [11] = assay: Aβ40/Aβ42 ELISA of culture supernatants, CHO cells expressing APP751; format: cell-based, Chinese hamster
# Description: as §1, §2, §3
# The effect of sulindac sulfone on Aβ42 secretion was examined. Sulindac sulfone is an oxidation product of the pro-drug sulindac. […] Cell cultures were treated with increasing concentrations of sulindac sulfone. Aβ40 and Aβ42 levels in culture supernatants were analyzed using ELISA.
# as §5
# [12] = three month-old, 50 mg/kg/day orally for three days, SDS-soluble, mean ± SD
# [13] = treatment for three days, 50 mg/kg/day
# [14] = 10 μM, six-hour culture supernatants, read-out: % Control % Aβ42
# [15] = 10 μM, six-hour culture supernatants, read-out: % Control Aβ40
# [16] = 10 μM, six-hour culture supernatants, read-out: % Control Aβ42
# [17] = six-hour culture supernatants, read-out: % Control % Aβ42
# [18] = six-hour culture supernatants, read-out: % Control Aβ40
# [19] = six-hour culture supernatants, read-out: % Control Aβ42
# [20] = cell cultures, cell line and concentration not stated
compound,measurement,setting,value
"CSc1ccc(/C=C2/C(C)=C(CC(=O)O)c3cc(F)ccc32)cc1 [Sulindac sulfide, sulindac sulfide]",Notch cleavage and NICD formation,"[1]; 125 μM for 36 hours, HEK293 cells transfected with NotchΔEMV",did not impair Notch cleavage and NICD formation
same,total Aβ level (sum of Aβ40 and Aβ42),Aβ42 secretion [2]; sulindac sulfide concentrations of FIG. 1,No significant reduction
same,"CTF levels (western blot, CT15)",APP processing; compared with DMSO,nor an increase in CTF levels was observed
same,"steady-state APP levels (western blot, CT15)",APP processing; compared with DMSO,neither a change in APP levels
same,secretion of the APP ectodomain (sAPP),"APP processing; increasing concentrations, 5A3/1G7 antibodies",no significant change
same,Aβ42 secretion (mass spectrometry),Aβ species [3]; 75-100 μM,strong reduction
same,levels of Aβ40 (mass spectrometry),Aβ species [3]; 75-100 μM,largely unaffected
same,increases in Aβ1-38 levels,Aβ species [3]; 75 or 100 μM,dose-dependent
same,other Aβ peptide levels,Aβ species [3]; compared with DMSO,did not vary consistently
same,cell toxicity,CHO or HS683 cells,No cell toxicity was observed
same,immuno-reactive band corresponding to Aβ1-38,Aβ species [4],equivalent increase in the intensity
same,immuno-reactive band corresponding to Aβ42,Aβ species [4],reduction in the intensity
same,Aβ42 secretion,Aβ42 secretion [5],reduced Aβ42 secretion
same,Aβ42 secretion,Aβ42 secretion [6],reduced Aβ42 secretion
same,Plasma,[7],14.6 µM
same,activity at 10 µM,Aβ42 secretion [8]; read-out: % Control % Aβ42,65%
same,activity at 10 µM,Aβ42 secretion [8]; read-out: % Control Aβ40,97%
same,activity at 10 µM,Aβ42 secretion [8]; read-out: % Control Aβ42,57%
"CC(C)Cc1ccc(C(C)C(=O)O)cc1 (stereo not shown) [Ibuprofen, ibuprofen]",inhibition of Notch cleavage,[1]; 500 μM,did not cause
same,Brain levels of Aβ40,[9]; [12],2620 ± 246 fmol/gm
same,Brain levels of Aβ42,[9]; [12],734 ± 302 fmol/gm
same,% Aβ42 in brain,"[9]; three month-old, 50 mg/kg/day orally for three days, mean ± SD",21.5 ± 7.7 %
same,Aβ40 levels in the brain,[9]; [13],no change
same,reduction in Aβ42 levels in the brain,[9]; [13],approximately 30%
same,total Aβ levels,Aβ42 secretion [2]; concentrations up to 500 μM,not significantly affected
same,"Aβ levels in the brain, lower when treated than untreated",Aβ levels in the brain,about 38%
same,accumulation of APP-CTFs,APP processing; 500 μM,did not cause
same,Plasma,[7],40 to 111 µM
same,activity at 10 µM,Aβ42 secretion [8]; [14],82%
same,activity at 10 µM,Aβ42 secretion [8]; [15],102%
same,activity at 10 µM,Aβ42 secretion [8]; [16],80%
same,activity at 100 µM,Aβ42 secretion [8]; [17],81%
same,activity at 100 µM,Aβ42 secretion [8]; [18],95%
same,activity at 100 µM,Aβ42 secretion [8]; [19],74%
CS(=O)(=O)Nc1ccc([N+](=O)[O-])cc1OC1CCCCC1 [NS-398],COX-1/COX-2 selectivity# (1 = equal activity),COX-1/COX-2,.07
same,Aβ42/Aβ40 ratios,Aβ42 secretion [10]; [20],did not affect
same,total Aβ levels,Aβ42 secretion [10]; [20],did not affect
same,Aβ42/Aβ40 ratio,Aβ42 secretion [10],no effect
same,activity at 10 µM,Aβ42 secretion [8]; [14],132%
same,activity at 10 µM,Aβ42 secretion [8]; [15],101%
same,activity at 10 µM,Aβ42 secretion [8]; [16],146%
"CS(=O)(=O)c1ccc(C2=C(c3ccccc3)C(=O)OC2)cc1 [Rofecoxib, rofecoxib]",COX-1/COX-2 selectivity# (1 = equal activity),COX-1/COX-2,.001
same,Aβ42/Aβ40 ratio,"Aβ42 secretion [11]; CHO cells expressing APP751, 20 μM",not seen
same,Aβ42/Aβ40 ratio,Aβ42 secretion [10],no effect
same,Plasma,[7],0.003 µM
"COc1ccc2c(c1)c(CC(=O)O)c(C)n2C(=O)c1ccc(Cl)cc1 [Indomethacin, indomethacin]",inhibition of Notch cleavage,[1]; 150 μM,did not cause
same,total Aβ levels,Aβ42 secretion [2]; concentrations up to 100 μM,not significantly affected
same,accumulation of APP-CTFs,APP processing; 150 μM,did not cause
same,activity at 100 µM,Aβ42 secretion [8]; [17],68%
same,activity at 100 µM,Aβ42 secretion [8]; [18],101%
same,activity at 100 µM,Aβ42 secretion [8]; [19],69%
"CC(=O)Oc1ccccc1C(=O)O [Aspirin, Acetylsalicylic acid]",COX-1/COX-2 selectivity# (1 = equal activity),COX-1/COX-2,166
same,Aβ42 secretion,"Aβ42 secretion [11]; concentrations of up to 3 mM, data not shown",no reductions in Aβ42 secretion were observed
same,Aβ42/Aβ40 ratio,Aβ42 secretion [10],no effect
same,Plasma,[7],111 µM
same,activity at 100 µM,Aβ42 secretion [8]; [17],104%
same,activity at 100 µM,Aβ42 secretion [8]; [18],93%
same,activity at 100 µM,Aβ42 secretion [8]; [19],99%
